In patent publication US11046700B2, “Substituted imidazo[1,2-a]pyrazines, pyrazolo[1,5-c]pyrimidines, pyrazolo[1,5-a]pyridines, and purines for the treatment of schistosomiasis” (Merck Patent GmbH, priority 2017, dated 2021):
pIC50: −log10 of the molar value. Like-named read-outs stand apart in the source and are kept apart here.

Tests used:
Format in all cases: cell-based
[1] = tested on: S. mansoni adult worms; test: In vitro assay, S. mansoni adult worms; details: Schistosoma mansoni, read-out: (a) Adult
Description: (§1) The routine biological assays using adult or juvenile worms and cytotoxicity assays using MRC-5 cells have been disclosed previously in Mansour, N. R., et al. (2016). “High Throughput Screening Identifies Novel Lead Compounds with Activity against Larval, Juvenile and Schistosoma mansoni PLoS Negl Trap Dis 10(4): e0004659. Cytotoxicity assays using the HepG2 cell line were carried out as described in Molecular Diversity (2015) 19, 251-261.
(a) S. mansoni adult worms

[2] = tested on: S. mansoni juvenile worms; test: In vitro assay, S. mansoni juvenile worms; details: Schistosoma mansoni, read-out: (b) Juvenile
Description: as §1
(b) S. mansoni juvenile worms

[3] = tested on: HepG2 cell line; test: Cytotoxicity against human HepG2 cell lines
[4] = S. mansoni juvenile worms, in vitro
[5] = S. mansoni adult worms, in vitro

Structure (SMILES): CC(C)c1nc2cnc(-c3cccc(C(F)(F)F)c3)cn2c1-c1ccc(OP(=O)(O)O)cc1F [Example 3, 3-fluoro-4-[2-(propan-2-yl)-6-[3-(trifluoromethyl)phenyl]imidazo[1,2-a]pyrazin-3-yl]phenoxyphosphonic acid]
- pIC50 [1]: > 7.31
- pIC50 [2]: 6.89
- (e) Cytotox HepG2 [3]: 9.2 µM

Structure (SMILES): Cc1nc2cnc(-c3cccc(C(F)(F)F)c3)cn2c1-c1c(F)cc(O)cc1F [Example 15, 3,5-difluoro-4-[2-methyl-6-[3-(trifluoromethyl)phenyl]imidazo[1,2-a]pyrazin-3-yl]phenol]
- pIC50 [2, 4]: 6.77
- (e) Cytotox HepG2 [3]: 8.4 µM

Structure (SMILES): CC(C)c1nc2cnc(-c3cccc(C(F)(F)F)c3)cn2c1-c1c(F)cc(O)cc1F [Example 19, 3,5-difluoro-4-[2-(propan-2-yl)-6-[3-(trifluoromethyl)phenyl]imidazo[1,2-a]pyrazin-3-yl]phenol]
- pIC50 [1, 5]: 7.38
- pIC50 [2, 4]: 7.05
- (e) Cytotox HepG2 [3]: 7.5 µM

Structure (SMILES): CC(C)c1nc2cnc(-c3cccc(C(F)(F)F)c3)cn2c1-c1ccc2[nH]ncc2c1F [Example 21, 4-fluoro-5-{2-propan-2-yl-6-[3-trifluoromethylphenyl]imidazo[1,2-a]pyrazin-3-yl}-1H-indazole]
- pIC50 [1, 5]: 7.43
- pIC50 [2, 4]: 7.29
- (e) Cytotox HepG2 [3]: 15.1 µM

Structure (SMILES): CC(C)c1nn2cnc(-c3cccc(C(F)(F)F)c3)cc2c1-c1c(F)cc(O)cc1F [Example 24, 3,5-difluoro-4-(2-isopropyl-5-(3-(trifluoromethyl)phenyl)pyrazolo[1,5-c]pyrimidin-3-yl)phenol]
- pIC50 [1, 5]: 7.66
- pIC50 [2, 4]: > 7.92
- (e) Cytotox HepG2 [3]: 8.4 µM

Structure (SMILES): COc1ccc(-c2c(C(C)C)nc3cnc(-c4cccc(C(F)(F)F)c4)cn23)cc1OP(=O)(O)O [Example 28, 2-methoxy-5-[2-(propan-2-yl)-6-[3-(trifluoromethyl)phenyl]imidazo[1,2-a]pyrazin-3-yl]phenoxyphosphonic acid]
- pIC50 [2]: 6.74
- (e) Cytotox HepG2 [3]: 19.2 µM

Structure (SMILES): COc1ccc(-c2c(C(F)(F)F)nc3cnc(-c4cccc(C(F)(F)C(F)(F)F)c4)cn23)cc1O [Example 30, 2-methoxy-5-[2-(trifluoromethyl)-6-[3-(pentafluoroethyl)phenyl]imidazo[1,2-a]pyrazin-3-yl]phenol]
- pIC50 [1, 5]: 7.68
- pIC50 [2, 4]: > 7.92
- (e) Cytotox HepG2 [3]: 11.1 µM

Structure (SMILES): CC1(c2nc3cnc(-c4ccc(F)c(C(F)(F)F)c4)cn3c2-c2c(F)cc(O)cc2F)CC1 [Example 33, 3,5-difluoro-4-[2-(1-methyl-cycloprop-1-yl)-6-[4-fluoro-3-(trifluoromethyl)phenyl]imidazo[1,2-a]pyrazin-3-yl]phenol]
- pIC50 [1, 5]: 7.25
- pIC50 [2, 4]: 7.10
- (e) Cytotox HepG2 [3]: 7.9 µM

Structure (SMILES): Oc1cc(F)c(-c2c(C3CCC3)nc3cnc(-c4ccc(F)c(C(F)(F)F)c4)cn23)c(F)c1 [Example 35, 4-(2-cyclobutyl-6-(4-fluoro-3-(trifluoromethyl)phenyl)imidazo[1,2-a]pyrazin-3-yl)-3,5-difluorophenol]
- pIC50 [1, 5]: 7.23
- pIC50 [2, 4]: 7.14
- (e) Cytotox HepG2 [3]: 5.7 µM

Structure (SMILES): CCc1nc2cnc(-c3ccc(F)c(C(F)(F)F)c3)cn2c1-c1c(F)cc(O)cc1F [Example 36, 3,5-difluoro-4-[2-ethyl-6-[4-fluoro-3-(trifluoromethyl)phenyl]imidazo[1,2-a]pyrazin-3-yl]phenol]
- pIC50 [1, 5]: 7.28
- pIC50 [2, 4]: 7.29
- (e) Cytotox HepG2 [3]: 8.3 µM

Structure (SMILES): CCc1nc2cnc(-c3ccc(F)c(C(F)(F)F)c3)cn2c1-c1ccc2[nH]ncc2c1F [Example 37, 4-fluoro-5-{2-ethyl-6-[4-fluoro-3-(trifluoromethyl)phenyl]imidazo[1,2-a]pyrazin-3-yl}-1H-indazole]
- pIC50 [2, 4]: 6.96
- (e) Cytotox HepG2 [3]: 13.1 µM

Structure (SMILES): CC(C)c1nc2cnc(-c3cccc(S(F)(F)(F)(F)F)c3)cn2c1-c1c(F)cc(O)cc1F [Example 39, 3,5-difluoro-4-[2-(propan-2-yl)-6-[3-(pentafluorosulfanyl)phenyl]imidazo[1,2-a]pyrazin-3-yl]phenol]
- pIC50 [1, 5]: 7.62
- pIC50 [2, 4]: > 7.92
- (e) Cytotox HepG2 [3]: 6.6 µM

Structure (SMILES): CC(C)c1nc2cnc(-c3ccc(F)c(C(F)(F)F)c3)cn2c1-c1c(F)cc(OP(=O)(O)O)cc1F [Example 40, 3,5-difluoro-4-{6-[4-fluoro-3-(trifluoromethyl)phenyl]-2-(propan-2-yl)imidazo[1,2-a]pyrazin-3-yl}phenoxyphosphonic acid]
- pIC50 [1]: 7.57
- pIC50 [2]: 7.60
- (e) Cytotox HepG2 [3]: 6.5 µM

Structure (SMILES): Cc1nc2cnc(-c3ccc(F)c(C(F)(F)F)c3)cn2c1-c1c(F)cc(OP(=O)(O)O)cc1F [Example 41, 3,5-difluoro-4-{6-[4-fluoro-3-(trifluoromethyl)phenyl]-2-methyl-imidazo[1,2-a]pyrazin-3-yl}phenoxyphosphonic acid]
- pIC50 [2]: 7.00
- (e) Cytotox HepG2 [3]: 6.8 µM

Structure (SMILES): Fc1c(-c2c(C3CC3)nc3cnc(-c4cccc(S(F)(F)(F)(F)F)c4)cn23)ccc2[nH]ncc12 [Example 46, 2-cyclopropyl-3-(4-fluoro-1H-indazol-5-yl)-6-(3-(pentafluoro-λ6-sulfaneyl)phenyl)imidazo[1,2-a]pyrazine]
- pIC50 [2, 4]: 7.44
- (e) Cytotox HepG2 [3]: 20.7 µM

Structure (SMILES): CC(C)c1nn2cnc(-c3ccc(F)c(C(F)(F)F)c3)cc2c1-c1c(F)cc(O)cc1F [Example 47, 3,5-difluoro-4-(5-(4-fluoro-3-(trifluoromethyl)phenyl)-2-isopropylpyrazolo[1,5-c]pyrimidin-3-yl)phenol]
- pIC50 [1, 5]: 7.66
- pIC50 [2, 4]: 7.57
- (e) Cytotox HepG2 [3]: 8.9 µM

Structure (SMILES): CCc1nn2cnc(-c3ccc(F)c(C(F)(F)F)c3)cc2c1-c1c(F)cc(O)cc1F [Example 48, 4-(2-ethyl-5-(4-fluoro-3-(trifluoromethyl)phenyl)pyrazolo[1,5-c]pyrimidin-3-yl)-3,5-difluorophenol]
- pIC50 [1, 5]: 7.96
- pIC50 [2, 4]: 7.49
- (e) Cytotox HepG2 [3]: 9.8 µM

Structure (SMILES): Cc1nc2cnc(-c3cccc(C(F)(F)C(F)(F)F)c3)cn2c1-c1c(F)cc(O)cc1F [Example 49, 3,5-difluoro-4-[2-methyl-6-[3-(pentafluoroethyl)phenyl]imidazo[1,2-a]pyrazin-3-yl]phenol]
- pIC50 [1, 5]: 7.47
- pIC50 [2, 4]: 7.46
- (e) Cytotox HepG2 [3]: 9.3 µM

Structure (SMILES): CCc1nc2cnc(-c3cccc(C(F)(F)C(F)(F)F)c3)cn2c1-c1c(F)cc(O)cc1F [Example 52, 4-[2-Ethyl-6-(3-pentafluoroethyl-phenyl)-imidazo[1,2-a]pyrazin-3-yl]-3,5-difluoro-phenol]
- pIC50 [1, 5]: > 7.92
- pIC50 [2, 4]: 8.00
- (e) Cytotox HepG2 [3]: 8.0 µM

Structure (SMILES): Cc1nc2cnc(-c3ccc(F)c(C(F)(F)C(F)(F)F)c3)cn2c1-c1c(F)cc(O)cc1F [Example 53, 3,5-Difluoro-4-[6-(4-fluoro-3-pentafluoroethyl-phenyl)-2-methyl-imidazo[1,2-a]pyrazin-3-yl]-phenol]
- pIC50 [1, 5]: 7.72
- pIC50 [2, 4]: 7.70
- (e) Cytotox HepG2 [3]: 8.8 µM

Structure (SMILES): Oc1cc(F)c(-c2c(C3CC3)nc3cnc(-c4ccc(F)c(S(F)(F)(F)(F)F)c4)cn23)c(F)c1 [Example 56, 4-[2-Cyclopropyl-6-(4-fluoro-3-pentafluorosulfanyl-phenyl)-imidazo[1,2-a]pyrazin-3-yl]-3,5-difluoro-phenol]
- pIC50 [1, 5]: 7.72
- pIC50 [2, 4]: 7.70
- (e) Cytotox HepG2 [3]: 10.1 µM

Structure (SMILES): Fc1ccc(-c2cn3c(-c4ccc5[nH]ncc5c4F)c(C4CC4)nc3cn2)cc1S(F)(F)(F)(F)F [Example 57, 2-Cyclopropyl-3-(4-fluoro-1H-indazol-5-yl)-6-(4-fluoro-3-pentafluorosulfanyl-phenyl)-imidazo[1,2-a]pyrazine]
- pIC50 [1, 5]: 7.77
- pIC50 [2, 4]: 7.52
- (e) Cytotox HepG2 [3]: 14.8 µM

Structure (SMILES): CC(C)c1nn2cnc(-c3ccc(F)c(C(F)(F)C(F)(F)F)c3)cc2c1-c1ccc2[nH]ncc2c1F [Example 58, 3-(4-Fluoro-1H-indazol-5-yl)-5-(4-fluoro-3-pentafluoroethyl-phenyl)-2-isopropylpyrazolo[1,5-c]pyrimidine]
- pIC50 [1, 5]: 7.51
- pIC50 [2, 4]: 7.70
- (e) Cytotox HepG2 [3]: 10.8 µM

Structure (SMILES): O=P(O)(O)Oc1cc(F)c(-c2c(C3CC3)nc3cnc(-c4ccc(F)c(C(F)(F)F)c4)cn23)c(F)c1 [Example 62, Phosphoric acid mono-{4-[2-cyclopropyl-6-(4-fluoro-3-trifluoromethyl-phenyl)-imidazo[1,2-a]pyrazin-3-yl]-3,5-difluoro-phenyl}ester]
- pIC50 [2]: 8.43
- (e) Cytotox HepG2 [3]: 14.8 µM

Structure (SMILES): Fc1ccc(-c2cn3c(-c4ccc5[nH]ncc5c4F)c(C(F)(F)F)nc3cn2)cc1S(F)(F)(F)(F)F [Example 65, 3-(4-Fluoro-1H-indazol-5-yl)-6-(4-fluoro-3-pentafluorosulfanyl-phenyl)-2-trifluoromethyl-imidazo[1,2-a]pyrazine]
- pIC50 [1, 5]: 7.36
- pIC50 [2, 4]: 7.96
- (e) Cytotox HepG2 [3]: 11.1 µM

Structure (SMILES): C#CCOc1cc(-c2cn3c(-c4ccc5[nH]ncc5c4F)c(C(F)(F)F)nc3cn2)ccc1F [Example 78, 3-(4-Fluoro-1H-indazol-5-yl)-6-(4-fluoro-3-prop-2-ynyloxy-phenyl)-2-trifluoromethyl-imidazo[1,2-a]pyrazine]
- pIC50 [1, 5]: 8.00
- pIC50 [2, 4]: 7.68

Structure (SMILES): CC(C)c1cc(-c2cn3c(-c4c(F)cc(O)cc4F)c(C4CC4)nc3cn2)ccc1F [Example 80, 4-[2-Cyclopropyl-6-(4-fluoro-3-isopropyl-phenyl)-imidazo[1,2-a]pyrazin-3-yl]-3,5-difluoro-phenol]
- pIC50 [1, 5]: 8.40
- pIC50 [2, 4]: 8.30

Structure (SMILES): Fc1ccc(-c2cn3c(-c4ccc5[nH]ncc5c4F)c(C(F)(F)F)nc3cn2)cc1Br [Example 85, 6-(3-Bromo-4-fluoro-phenyl)-3-(4-fluoro-1H-indazol-5-yl)-2-trifluoromethyl-imidazo[1,2-a]pyrazine]
- pIC50 [1, 5]: 7.32
- pIC50 [2, 4]: 8.15
